Laboratory results as given in US11912693B2, “Compounds for modulating S1P1 activity and methods of using the same” (TREVENA, INC., priority 2017, dated 2024).

Assays:
[1] = molecular target: T1, human sphingosine-1-phosphate receptor 1 (S1P1) (Homo sapiens (Human), UniProt P21453); assay: β-Arrestin2 recruitment assay (PathHunter), S1P1 CHO-K1 cells; type: cell-based; conditions: for Emax: CHO-K1, efficacy (SPAN) normalized to fingolimod, read-out: hS1P1 B-arrestin2 SPAN; for hS1P1 B-arrestin2 pEC50 / EC50: β-arrestin2 recruitment, S1P1 CHO-K1 cells; for EC50: read-out: hS1P1 B-arrestin2 pEC50 (converted)
In short: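 Enzyme-fragment complementation read-out: agonist-driven β-arrestin2 binding to ProLink-tagged human S1P1 in stable CHO-K1 cells restores β-galactosidase, measured 1 h at room temperature after a 60 min 37° C. compound incubation. Potency as pEC50, efficacy relative to fingolimod (SPAN).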
Target sequence in this assay (P21453 whole entry, looked up, the tested form may be a part): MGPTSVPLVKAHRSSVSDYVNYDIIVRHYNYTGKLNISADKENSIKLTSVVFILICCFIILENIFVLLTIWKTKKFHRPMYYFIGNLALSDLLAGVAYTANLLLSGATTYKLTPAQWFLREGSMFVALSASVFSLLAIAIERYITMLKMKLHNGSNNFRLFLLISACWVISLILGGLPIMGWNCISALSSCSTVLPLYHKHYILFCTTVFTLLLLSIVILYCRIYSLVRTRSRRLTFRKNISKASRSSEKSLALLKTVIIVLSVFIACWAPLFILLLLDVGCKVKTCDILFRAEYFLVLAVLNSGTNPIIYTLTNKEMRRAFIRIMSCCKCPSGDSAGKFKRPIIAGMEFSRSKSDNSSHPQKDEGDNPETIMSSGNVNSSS
Target sequence in this assay (P32121 whole entry partner, looked up, the tested form may be a part): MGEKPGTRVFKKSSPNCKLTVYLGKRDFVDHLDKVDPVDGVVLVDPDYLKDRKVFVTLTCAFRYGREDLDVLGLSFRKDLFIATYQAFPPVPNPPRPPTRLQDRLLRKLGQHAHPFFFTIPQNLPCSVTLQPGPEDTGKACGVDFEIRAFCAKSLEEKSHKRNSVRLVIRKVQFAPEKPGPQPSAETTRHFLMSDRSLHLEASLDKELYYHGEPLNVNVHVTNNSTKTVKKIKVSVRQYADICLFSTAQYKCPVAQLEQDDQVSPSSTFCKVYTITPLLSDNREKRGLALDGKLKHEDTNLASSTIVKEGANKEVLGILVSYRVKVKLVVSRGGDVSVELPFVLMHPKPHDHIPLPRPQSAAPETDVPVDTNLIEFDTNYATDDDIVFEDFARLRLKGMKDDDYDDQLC

[2] = molecular target: T1, human sphingosine-1-phosphate receptor 1 (S1P1); assay: Inhibition of cAMP production (HTRF cAMP HiRange), S1P1 CHO-K1 cells; type: cell-based; conditions: for Emax: CHO-K1, efficacy (SPAN) normalized to fingolimod, read-out: hS1P1 cAMP SPAN; for hS1P1 cAMP pEC50 / EC50: inhibition of cAMP production, S1P1 CHO-K1 cells; for EC50: read-out: hS1P1 cAMP pEC50 (converted)
In short: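 CHO-K1 cells stably co-expressing human S1P1 (C-terminal Prolink tag) and EA-β-arrestin2 were grown in AssayComplete Media 6 at 37° C. and 5% CO2, plated, and incubated overnight. Agonist-driven inhibition of intracellular cAMP was read by TR-FRET with the HTRF cAMP HiRange kit on a PheraStar reader. Potency is pEC50, and efficacy (SPAN) is normalized to fingolimod.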
Target sequence in this assay (P21453 whole entry, looked up, the tested form may be a part): as the sequence (P21453 whole entry, looked up, the tested form may be a part) above

Row | Emax [1] [%] | hS1P1 B-arrestin2 pEC50 [1] | Emax [2] [%] | hS1P1 cAMP pEC50 [2] | EC50 [1] [µM] | EC50 [2] [µM] | Compound
1 | > 75 | >5 | > 75 | >6.5 | – | – | N#Cc1cc(-c2nnc(-c3ccc4[nH]ncc4c3)o2)ccc1NCC1CC1 [Compound 352, 2-[(cyclopropylmethyl)amino]-5-[5-(1H-indazol-5-yl)-1,3,4-oxadiazol-2-yl]benzonitrile]
2 | > 75 | >5 | > 75 | >6.5 | – | – | N#Cc1cc(-c2nnc(-c3ccc4[nH]ncc4c3)o2)ccc1NCCF [Compound 353, 2-[(2-fluoroethyl)amino]-5-[5-(1H-indazol-5-yl)-1,3,4-oxadiazol-2-yl]benzonitrile]
3 | > 75 | >5 | > 75 | >6.5 | – | – | N#Cc1cc(-c2nnc(-c3ccc4[nH]cnc4c3)o2)ccc1NCC1CC1 [Compound 357, 5-[5-(1H-1,3-benzodiazol-5-yl)-1,3,4-oxadiazol-2-yl]-2-[(cyclopropylmethyl)amino]benzonitrile]
4 | – | <5 | – | <6.5 | – | – | Cc1nc(-c2ccccc2)oc1-c1cnc2c(c1)CC(=O)N2 [Compound 360, 5-(4-methyl-2-phenyl-1,3-oxazol-5-yl)-1H,2H,3H-pyrrolo[2,3-b]pyridin-2-one]
5 | – | <5 | – | <6.5 | – | – | Cc1ccccc1-c1noc(-c2ccc3scnc3c2)n1 [Compound 362, 5-[3-(2-methylphenyl)-1,2,4-oxadiazol-5-yl]-1,3-benzothiazole]
6 | – | <5 | – | <6.5 | – | – | COc1ccc(-c2nsc(-c3ccc4[nH]ccc4c3)n2)cc1 [Compound 363, 5-[3-(4-methoxyphenyl)-1,2,4-thiadiazol-5-yl]-1H-indole]
7 | – | <5 | – | <6.5 | – | – | COc1cccc(-c2nc(-c3ccc4[nH]ccc4c3)ns2)c1 [Compound 364, 5-[5-(3-methoxyphenyl)-1,2,4-thiadiazol-3-yl]-1H-indole]
8 | – | >5 | – | <6.5 | – | – | Cc1ccccc1-c1noc(-c2ccc3c(c2)CCC(=O)N3)n1 [Compound 365, 6-[3-(2-methylphenyl)-1,2,4-oxadiazol-5-yl]-1,2,3,4-tetrahydroquinolin-2-one]
9 | – | <5 | – | <6.5 | – | – | COc1cccc(-c2nc(-c3ccc4c(ccn4C(C)C)c3)ns2)c1 [Compound 366, 5-[5-(3-methoxyphenyl)-1,2,4-thiadiazol-3-yl]-1-(propan-2-yl)-1H-indole]
10 | – | <5 | – | <6.5 | – | – | Cc1ccccc1-c1noc(-c2ccc3c(c2)CCC(=O)N3C)n1 [Compound 367, 1-methyl-6-[3-(2-methylphenyl)-1,2,4-oxadiazol-5-yl]-1,2,3,4-tetrahydroquinolin-2-one]
11 | – | <5 | – | <6.5 | – | – | COc1ccccc1-c1noc(-c2ccc3[nH]ccc3c2)n1 [Compound 368, 5-(1H-indol-5-yl)-3-(2-methoxyphenyl)-1,2,4-oxadiazole]
12 | – | <5 | – | <6.5 | – | – | COc1ccccc1-c1noc(-c2ccc3[nH]cnc3c2)n1 [Compound 369, 5-(1H-benzo[d]imidazol-5-yl)-3-(2-methoxyphenyl)-1,2,4-oxadiazole]
13 | – | >5 | – | >6.5 | – | – | COc1ccccc1-c1noc(-c2ccc3c(cnn3C(C)C)c2)n1 [Compound 370, 5-(1-isopropyl-1H-indazol-5-yl)-3-(2-methoxyphenyl)-1,2,4-oxadiazole]
14 | – | <5 | – | <6.5 | – | – | COc1ccccc1-c1noc(-c2ccc3[nH]ncc3c2)n1 [Compound 371, 5-(1H-indazol-5-yl)-3-(2-methoxyphenyl)-1,2,4-oxadiazole]
15 | – | >5 | – | >6.5 | – | – | COc1ccccc1-c1noc(-c2ccc3c(ccn3C(C)C)c2)n1 [Compound 372, 5-(1-isopropyl-1H-indol-5-yl)-3-(2-methoxyphenyl)-1,2,4-oxadiazole]
16 | – | <5 | – | <6.5 | – | – | COc1ccccc1-c1noc(-c2ccc3c(c2)ncn3C(C)C)n1 [Compound 373, 5-(1-isopropyl-1H-benzo[d]imidazol-5-yl)-3-(2-methoxyphenyl)-1,2,4-oxadiazole]
17 | – | <5 | – | <6.5 | – | – | CC(C)n1ccc2cc(-c3nc(-c4ccccc4F)ns3)ccc21 [Compound 374, 5-[3-(2-fluorophenyl)-1,2,4-thiadiazol-5-yl]-1-(propan-2-yl)-1H-indole]
18 | – | >5 | – | >6.5 | – | – | COc1ccccc1-c1nc(-c2ccc3c(ccn3C(C)C)c2)ns1 [Compound 375, 5-[5-(2-methoxyphenyl)-1,2,4-thiadiazol-3-yl]-1-(propan-2-yl)-1H-indole]

Row | Emax [1] [%] | hS1P1 B-arrestin2 pEC50 [1] | Emax [2] [%] | hS1P1 cAMP pEC50 [2] | EC50 [1] [µM] | EC50 [2] [µM] | Compound
19 | – | <5 | – | <6.5 | – | – | CN1C(=O)Cc2cc(-c3nc(-c4cccnc4)no3)ccc21 [Compound 377, 1-methyl-5-[3-(pyridin-3-yl)-1,2,4-oxadiazol-5-yl]-2,3-dihydro-1H-indol-2-one]
20 | < 75 | – | < 75 | – | > 10 | > 0.316 | COC(=O)C12C3C4C1C1C2C3C41c1nc(-c2ccc3c(c2)nnn3C(C)C)no1 (stereo not shown) [Compound 378]
21 | < 75 | – | < 75 | – | > 10 | > 0.316 | CC(C)n1nnc2cc(-c3noc(C45C6C7C4C4C5C6C74C(=O)O)n3)ccc21 (stereo not shown) [Compound 379]
22 | – | <5 | – | <6.5 | – | – | CC(C)n1ccc2cc(-c3nsc(-c4ccccc4F)n3)ccc21 [Compound 380, 5-[5-(2-fluorophenyl)-1,2,4-thiadiazol-3-yl]-1-(propan-2-yl)-1H-indole]
23 | – | >5 | – | <6.5 | – | – | Cc1ccccc1-c1nsc(-c2ccc3c(ccn3C(C)C)c2)n1 [Compound 381, 5-[3-(2-methylphenyl)-1,2,4-thiadiazol-5-yl]-1-(propan-2-yl)-1H-indole]
24 | – | >5 | – | >6.5 | – | – | Cc1ccccc1-c1noc(-c2cnc3c(c2)nnn3C(C)C)n1 [Compound 382, 3-(2-methylphenyl)-5-[3-(propan-2-yl)-3H-[1,2,3]triazolo[4,5-b]pyridin-6-yl]-1,2,4-oxadiazole]
25 | – | >5 | – | >6.5 | – | – | COc1ccccc1-c1noc(-c2cnc3c(c2)nnn3C(C)C)n1 [Compound 383, 3-(2-methoxyphenyl)-5-[3-(propan-2-yl)-3H-[1,2,3]triazolo[4,5-b]pyridin-6-yl]-1,2,4-oxadiazole]
26 | > 75 | <5 | < 75 | <6.5 | – | – | COc1cccc(-c2coc(-c3ccc4c(c3)nnn4C(C)C)n2)c1 [Compound 385, 5-[4-(3-methoxyphenyl)-1,3-oxazol-2-yl]-1-(propan-2-yl)-1H-1,2,3-benzotriazole]
27 | – | <5 | – | <6.5 | – | – | O=C1CCc2cc(-c3nc(-c4cccnc4)no3)ccc2N1 [Compound 386, 6-[3-(pyridin-3-yl)-1,2,4-oxadiazol-5-yl]-1,2,3,4-tetrahydroquinolin-2-one]
28 | – | >5 | – | <6.5 | – | – | CC(C)n1ccc2cc(-c3noc(-c4ccccc4F)n3)ccc21 [Compound 387, 5-(2-fluorophenyl)-3-(1-isopropyl-1H-indol-5-yl)-1,2,4-oxadiazole]
29 | – | >5 | – | >6.5 | – | – | CC(C)n1ccc2cc(-c3noc(-c4ccccc4Br)n3)ccc21 [Compound 388, 5-(2-bromophenyl)-3-(1-isopropyl-1H-indol-5-yl)-1,2,4-oxadiazole]
30 | – | >5 | – | >6.5 | – | – | Cc1ccccc1-c1nc(-c2ccc3c(ccn3C(C)C)c2)no1 [Compound 389, 3-(1-isopropyl-1H-indol-5-yl)-5-(o-tolyl)-1,2,4-oxadiazole]
31 | – | >5 | – | >6.5 | – | – | CC(C)n1ccc2cc(-c3noc(-c4ccccc4C(F)(F)F)n3)ccc21 [Compound 390, 3-(1-isopropyl-1H-indol-5-yl)-5-(2-(trifluoromethyl)phenyl)-1,2,4-oxadiazole]
32 | – | <5 | – | <6.5 | – | – | COc1cccc(-c2nc(-c3ccc4c(ccn4C(C)C)c3)no2)c1 [Compound 392, 3-(1-isopropyl-1H-indol-5-yl)-5-(3-methoxyphenyl)-1,2,4-oxadiazole]
33 | – | <5 | – | <6.5 | – | – | COc1ccc(-c2nc(-c3ccc4c(ccn4C(C)C)c3)no2)cc1 [Compound 393, 3-(1-isopropyl-1H-indol-5-yl)-5-(4-methoxyphenyl)-1,2,4-oxadiazole]
34 | – | >5 | – | <6.5 | – | – | CC(C)n1ccc2cc(-c3noc(-c4cccc(F)c4)n3)ccc21 [Compound 394, 5-(3-fluorophenyl)-3-(1-isopropyl-1H-indol-5-yl)-1,2,4-oxadiazole]
35 | – | >5 | – | >6.5 | – | – | CC(C)n1ccc2cc(-c3noc(-c4ccncc4)n3)ccc21 [Compound 395, 3-(1-isopropyl-1H-indol-5-yl)-5-(pyridin-4-yl)-1,2,4-oxadiazole]
